# Measured values taken from article PMC7840908 (Communications Biology, 2021).
# “And” between values parts separate entries of the source, which are not always exact repeats. Equal entries are not always repeated. “Also recorded” adds a separate entry of the source.
# Assays:
# MERS-CoV = conditions: cited from earlier work
# MERS-CoV macro domain [1] = target: T1, MERS-CoV macro domain (Middle East respiratory syndrome-related coronavirus, UniProt K9N638); format: binding
# MERS-CoV macro domain [2] = target: T1, MERS-CoV macro domain; format: biochemical
# MERS-CoV macro domain [3] = target: T1, MERS-CoV macro domain; format: binding; remark: listed apart in the source
# MERS-CoV macro domain [4] = target: T1, MERS-CoV macro domain; format: binding; remark: listed apart in the source
# MERS-CoV macro domain [5] = target: T1, MERS-CoV macro domain; format: binding; remark: listed apart in the source
# T1 sequence (K9N638 1110-1276 limits assumed): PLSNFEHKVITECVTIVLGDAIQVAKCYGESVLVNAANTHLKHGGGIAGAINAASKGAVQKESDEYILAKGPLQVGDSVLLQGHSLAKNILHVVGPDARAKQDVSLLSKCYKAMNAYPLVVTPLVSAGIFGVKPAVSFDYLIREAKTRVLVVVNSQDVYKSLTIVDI
smiles,measurement,setting,value
Oc1ccc(/C=C/c2cc(O)cc(O)c2)cc1 [resveratrol],Effect on replication of MERS-CoV,MERS-CoV,inhibit the replication of MERS-CoV
"NC(=O)c1ccc[n+]([C@@H]2O[C@H](COP(=O)([O-])OP(=O)(O)OC[C@H]3O[C@@H](n4cnc5c(N)ncnc54)[C@H](O)[C@@H]3O)[C@@H](O)[C@H]2O)c1 [NAD, nicotinamide adenine dinucleotide]","NMR CSP, residue 25",MERS-CoV macro domain [1],0.05155 and 0.0863
same,"NMR CSP, residue 27",MERS-CoV macro domain [1],0.02171 and 0.02658
same,"NMR CSP, residue 35",MERS-CoV macro domain [1],0.0131
same,"NMR CSP, residue 36",MERS-CoV macro domain [1],0.01783
same,"NMR CSP, residue 37",MERS-CoV macro domain [1],0.07975
same,"NMR CSP, residue 38",MERS-CoV macro domain [1],0.01444
same,"NMR CSP, residue 45",MERS-CoV macro domain [1],0.2497
same,"NMR CSP, residue 47",MERS-CoV macro domain [1],0.006205
same,"NMR CSP, residue 48",MERS-CoV macro domain [1],0.04145
same,"NMR CSP, residue 49",MERS-CoV macro domain [1],0.01049
same,"NMR CSP, residue 79",MERS-CoV macro domain [1],0.07732 and 0.1287
same,"NMR CSP, residue 104",MERS-CoV macro domain [1],0.01357 and 0.02257
same,"NMR CSP, residue 115",MERS-CoV macro domain [1],0.005468 and 0.008456
same,"NMR CSP, residue 124",MERS-CoV macro domain [1],0.0754 and 0.108
same,"NMR CSP, residue 128",MERS-CoV macro domain [1],0.1673
same,"NMR CSP, residue 129",MERS-CoV macro domain [1],0.02609
same,"NMR CSP, residue 130",MERS-CoV macro domain [1],0.008538
same,"NMR CSP, residue 132",MERS-CoV macro domain [1],0.01478
same,"NMR CSP, residue 140",MERS-CoV macro domain [1],0.01724 and 0.02911
same,"NMR CSP, residue 143",MERS-CoV macro domain [1],0.0201 and 0.02422
same,"NMR CSP, residue 156",MERS-CoV macro domain [1],0.0383
same,NMR chemical shift perturbation behaviour / exchange regime,MERS-CoV macro domain [1],only a few residues presented CSPs; also recorded: slow-exchange
same,Effect on MAR signals in the deMAR reaction,MERS-CoV macro domain [2],the MAR signals reduced more
same,entropy contribution,MERS-CoV macro domain [3],−22.59 ± 3.77 J/mol K
same,n (stoichiometry of binding),MERS-CoV macro domain [3],1.04 ± 0.12 and 0.938 ± 0.13
same,"Melting temperature (Tm) of the MERS-CoV macro domain in complex, CD",MERS-CoV macro domain [4],46.6 °C
same,"Melting temperature (Tm) of the MERS-CoV macro domain in complex, DSF",MERS-CoV macro domain [5],46.5 °C
